In patent publication US20240390383A1, “DIOXAZINES AND THEIR USE IN TREATMENT OF GBA-RELATED DISEASES” (ZEVRA DENMARK A/S, priority 2021, published 2024):
Values joined by “and” are separate entries in the source; they are usually repeats but may differ in a detail not shown here. Equal entries are not always repeated.

Biological target: T1, GCase (GBA) in human fibroblast cell line GM10915 harboring the L444P GBA mutation (Homo sapiens, UniProt P04062, L483P)
T1 construct: Human fibroblast cell line GM10915 harboring the L444P GBA mutation; host or cells: GM10915 human fibroblasts
T1 sequence (P04062 40-536 L483P): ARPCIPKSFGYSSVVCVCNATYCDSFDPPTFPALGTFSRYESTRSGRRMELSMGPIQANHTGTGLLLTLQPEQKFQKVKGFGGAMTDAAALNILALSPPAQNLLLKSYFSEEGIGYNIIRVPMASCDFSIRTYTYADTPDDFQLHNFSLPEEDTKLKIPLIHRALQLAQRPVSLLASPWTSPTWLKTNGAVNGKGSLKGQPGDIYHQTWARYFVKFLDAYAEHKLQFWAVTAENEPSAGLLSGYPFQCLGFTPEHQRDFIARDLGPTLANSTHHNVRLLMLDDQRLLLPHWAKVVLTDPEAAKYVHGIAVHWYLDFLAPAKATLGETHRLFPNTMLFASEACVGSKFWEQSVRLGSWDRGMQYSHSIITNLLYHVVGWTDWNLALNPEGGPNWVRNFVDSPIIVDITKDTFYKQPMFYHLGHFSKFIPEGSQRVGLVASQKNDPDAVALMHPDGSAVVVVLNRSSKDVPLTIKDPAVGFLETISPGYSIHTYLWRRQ
Experiment: GCase activity assay (4-MUG substrate, normalised to crystal violet staining) in L444P GBA fibroblasts
Format: cell-based
Conditions: 5 days exposure; for GBA EC1.5: concentration giving 150% GCase activity (1.5-fold induction), 8-point dose range; for Emax / GBA Emax: maximum percent GCase activity relative to untreated cells in the dose range tested
Description: Human fibroblast cell line GM10915 harboring the L444P GBA mutation was obtained from Coriell Biorepositories.
All chemicals (Glacial acetic acid, Glycine, 4-Methylumbelliferyl b-D-glucopyranoside (4-MUG), Sodium acetate trihydrate, Sodium hydroxide, Crystal violet, SDS, Ammonium hydroxide) were obtained from Sigma-Aldrich (Denmark) Compounds tested for GCase activity were dissolved in H2O or DMSO.
The GM10915 cell line was cultured under standard cell culture conditions (37° C. and 5% CO2) in complete DMEM medium supplemented with nonessential amino acids (NEAA), 1% Pen-Strep and 12% FCS. Cells were seeded at a density of 10^4 cells/well in 100 μL complete medium in one black 96-well plate for glucosylceramidase (GCase) activity measurement and in one clear 96-well plate for crystal violet staining to correct for cell density. Crystal violet staining is performed to obtain quantitative information about the relative density of cells adhering to multi-wells plates.
The assay was adapted from Sawkar et al (2002) and briefly described in the following. The day after seeding of cells, the medium was replaced with fresh medium containing the compounds to be tested. Compounds were tested in duplicate and in an 8-point diluted dose range to obtain a dose response. Cells were exposed with compounds for five days. Fresh compound was added every 2-3 days. PBS was included to define the basal level of GCase activity.
Cells were washed three times with 200 μL PBS per well and 50 μL of 2.5 mM 4-MUG buffer (4-MUG dissolved in 0.2 M acetate buffer pH 4.0) was added and the cells were incubated at 37° C., 5% CO2 for 23 hours. The reaction was stopped by adding 150 μL 0.2 M glycine buffer (pH 10.8). Fluorescence was measured with a Varioskan® Flash reader (Thermo Scientific) at an excitation/emission setting of 365/445 nm.
Cells were treated with compounds in a parallel setup identical to the setup to test for GCase activity. At the end of compound treatment, cells were washed once with 200 μL PBS per well and 50 μL 0.1% w/v crystal violet (in H2O) was added. Following 10 min. of incubation, the crystal violet solution was removed, and the cells were washed three times with 200 μL PBS and 100 μL 1% SDS was added to solubilize the stain. The plate was agitated on an orbital shaker for 10-30 min. Absorbance (A) is measured at […] using a Varioskan® Flash reader (Thermo Scientific).
The fluorescence signal (F) derived from the GCase measurement is normalized to the absorbance signal (A) derived from the crystal violet staining. The percent GCase activity resulting from compound treatment is calculated relative to the basal activity obtained from untreated cells.
Maximal effect of compounds (Emax) is determined from the dose response effects as the maximum “Percent GCase activity” achieved in the dose range tested.

What does the source list for FC(F)(F)CN1CCCC(CC2=NOCC(CN3CCCCC3)O2)C1 (centres unmarked) [compound 587]?
GBA EC1.5: 50 µM; Emax: 100%

With CC1(C)CC(C2=NOCC(CN3CCCCC3)O2)CCN1 (racemic) [compound 705, rac-3-(2,2-dimethyl-4-piperidyl)-5-(1-piperidylmethyl)-5,6-dihydro-1,4,2-dioxazine] as the compound, how does the “GBA EC1.5” value read?
The value was 5 µM.

And the Emax?
Its Emax is 180%.

CN1CCN(CC2CON=C(C3(Cc4cccnc4)CCNCC3)O2)CC1 (centres unmarked) [compound 686] was tested. Which “GBA EC1.5” value did it give?
Its value is 50 µM.

What about the Emax of the same compound?
Its Emax is 97%.

How did the “GBA EC1.5” value turn out when c1cnc(N2CCC(C3=NOCC(CN4CCCCC4)O3)CC2)nc1 (centres unmarked) [compound 658] was run?
Its value is 50 µM.

And the Emax?
The Emax was 116%.

How did the “GBA EC1.5” value turn out when COC1CCN(C)CC1C1=NOCC(CN2CCCCC2)O1 (racemic) [compound 700, rac-3-(4-methoxy-1-methylpiperidin-3-yl)-5-(piperidin-1-ylmethyl)-5,6-dihydro-1,4,2-dioxazine] was run?
Its value is 15 µM.

What about the Emax of the same compound?
Its Emax is 270%.

Which “GBA EC1.5” value does the source give for CC1(C2=NOC[C@@H](CN3CCCCC3)O2)CCNCC1 [compound 886] here?
The value was 7 µM.

What about the “GBA Emax” value of the same compound?
Its value is 203%.

How did the “GBA EC1.5” value turn out when F[C@H]1CN[C@H](C2=NOCC(CN3CCCCC3)O2)C1 (some centres unmarked) [compound 556] was run?
The value was 50 µM.

What about the Emax of the same compound?
Its Emax is 114%.

For C[C@@H]1ON=C(C2(C)CCNCC2)O[C@H]1CN1CCCCC1 [compound 887], which “GBA EC1.5” value is on record?
The value was 5 µM.

And the Emax?
Its Emax is 233%.

How did the “GBA EC1.5” value turn out when CN1CC2(C1)CN(CC1CON=C(C3(C)CCNCC3)O1)C2 (centres unmarked) [compound 580] was run?
The value was 50 µM.

And the Emax?
Its Emax is 105%.

For C1CCN(CC2CON=C(C34CNC(C3)C4)O2)CC1 (racemic) [compound 527, rac-3-(2-azabicyclo[2.1.1]hexan-4-yl)-5-(piperidin-1-ylmethyl)-5,6-dihydro-1,4,2-dioxazine], which “GBA EC1.5” value is on record?
Its value is 26 µM.

What about the Emax of the same compound?
Its Emax is 187%.

Which “GBA EC1.5” value does the source give for c1cn2c(n1)CC(C1=NOCC(CN3CCCCC3)O1)CC2 (racemic) [compound 660, rac-5-(piperidin-1-ylmethyl)-3-(5,6,7,8-tetrahydroimidazo[1,2-a]pyridin-7-yl)-5,6-dihydro-1,4,2-dioxazine] here?
Its value is 9 µM.

What about the Emax of the same compound?
Its Emax is 212%.

For COC1(C2=NOCC(CN3CCCCC3)O2)CCNC1 (racemic) [compound 606, rac-3-(3-methoxypyrrolidin-3-yl)-5-(piperidin-1-ylmethyl)-5,6-dihydro-1,4,2-dioxazine], which “GBA EC1.5” value is on record?
The value was 20 µM.

And the Emax?
The Emax was 292%.

Which “GBA EC1.5” value does the source give for Fc1cccc(C2(C3=NOCC(CN4CCCCC4)O3)CCCNC2)n1 (centres unmarked) [compound 598] here?
The value was 1 µM.

What about the Emax of the same compound?
The Emax was 179%.

Which results are given for CN(C)c1ccc(CC2(C3=NOCC(CN4CCCCC4)O3)CCNCC2)cn1 (centres unmarked) [compound 543]?
GBA EC1.5: 3 µM; Emax: 138%

For C1CCN(CC2CON=C([C@]34CCC[C@H]3NCC4)O2)CC1 (relative stereo) [compound 469, rac-3-rel-trans-((3aS,6aR)-hexahydrocyclopenta[b]pyrrol-3a(1H)-yl)-5-(piperidin-1-ylmethyl)-5,6-dihydro-1,4,2-dioxazine], which “GBA EC1.5” value is on record?
The value was 5 µM.

And the “GBA Emax” value?
Its value is 204%.

With c1csc(N2CCC(C3=NOCC(CN4CCCCC4)O3)CC2)n1 (centres unmarked) [compound 635] as the compound, how does the “GBA EC1.5” value read?
Its value is 50 µM.

What about the Emax of the same compound?
The Emax was 135%.

How did the “GBA EC1.5” value turn out when O=c1[nH]nc2n1CCC(C1=NOCC(CN3CCCCC3)O1)C2 (centres unmarked) [compound 668] was run?
The value was 50 µM.

And the Emax?
The Emax was 116%.

For COC1CN(C)CCC1C1=NOCC(CN2CCCCC2)O1 (racemic) [compound 720, rac-3-(3-methoxy-1-methylpiperidin-4-yl)-5-(piperidin-1-ylmethyl)-5,6-dihydro-1,4,2-dioxazine], which “GBA EC1.5” value is on record?
The value was 11 µM.

What about the Emax of the same compound?
The Emax was 346%.

Which “GBA EC1.5” value does the source give for CN1CCC(C2=NOCC(CN3CCCCC3)O2)C1 (centres unmarked) [compound 629] here?
The value was 11 µM.

What about the Emax of the same compound?
The Emax was 247%.

With CN1CCCC(C(C)(C)C2=NOCC(CN3CCCCC3)O2)C1 (racemic) [compound 595, rac-3-(2-(1-methylpiperidin-3-yl)propan-2-yl)-5-(piperidin-1-ylmethyl)-5,6-dihydro-1,4,2-dioxazine] as the compound, how does the “GBA EC1.5” value read?
Its value is 6 µM.

What about the Emax of the same compound?
Its Emax is 172%.

How did the “GBA EC1.5” value turn out when CN1C[C@@H](O)C[C@H](C2=NOCC(CN3CCCCC3)O2)C1 (relative stereo) [compound 724, rac-rel-(3R,5R)-1-methyl-5-(5-(piperidin-1-ylmethyl)-5,6-dihydro-1,4,2-dioxazin-3-yl)piperidin-3-ol] was run?
The value was 16 µM.

And the Emax?
The Emax was 274%.

With C1CCN(C[C@@H]2CON=C([C@]34CCC[C@H]3NCC4)O2)CC1 (relative stereo) [compound 589, (rel-R)-3-((rel-trans-3aS,6aR)-hexahydrocyclopenta[b]pyrrol-3a(1H)-yl)-5-(piperidin-1-ylmethyl)-5,6-dihydro-1,4,2-dioxazine] as the compound, how does the “GBA EC1.5” value read?
The value was 4 µM and 5 µM.

What about the “GBA Emax” value of the same compound?
Its value is 216% and 272%.

Which “GBA EC1.5” value does the source give for NC(=O)N1CCC(C2=NOCC(CN3CCCCC3)O2)CC1 (centres unmarked) [compound 639] here?
The value was 50 µM.

And the Emax?
Its Emax is 112%.

For Cn1ccnc1CC1(C2=NOCC(CN3CCCCC3)O2)CCNCC1 (centres unmarked) [compound 607], which “GBA EC1.5” value is on record?
Its value is 50 µM.

And the Emax?
Its Emax is 123%.

Which results are given for c1ccc(N2CCC(C3=NOCC(CN4CCCCC4)O3)CC2)nc1 (centres unmarked) [compound 678]?
GBA EC1.5: 50 µM; Emax: 106%

Which “GBA EC1.5” value does the source give for C[C@@H]1CC(C2=NOCC(CN3CCCCC3)O2)C[C@H](C)N1 (mixture of isomers) [compound 633, rac-3-((2R,6S)-2,6-dimethylpiperidin-4-yl)-5-(piperidin-1-ylmethyl)-5,6-dihydro-1,4,2-dioxazine] here?
The value was 5 µM.

What about the Emax of the same compound?
Its Emax is 226%.

C1CCN(CC2CON=C(C3CCNC3)O2)CC1 (racemic) [compound 508, rac-5-(piperidin-1-ylmethyl)-3-(pyrrolidin-3-yl)-5,6-dihydro-1,4,2-dioxazine] was tested. Which “GBA EC1.5” value did it give?
The value was 17 µM.

What about the Emax of the same compound?
Its Emax is 226%.

How did the “GBA EC1.5” value turn out when C1CCN(C[C@@H]2CON=C([C@]34CCC[C@H]3NCC4)O2)CC1 (single isomer, unassigned) [compound 590] was run?
Its value is 4 µM and 3 µM.

And the “GBA Emax” value?
Its value is 211% and 273%.

What does the source list for CNC1CNCC(C2=NOCC(CN3CCCCC3)O2)C1 (racemic) [compound 756, rac-N-methyl-5-(5-(piperidin-1-ylmethyl)-5,6-dihydro-1,4,2-dioxazin-3-yl)piperidin-3-amine]?
GBA EC1.5: 39 µM; Emax: 121%

For COC1CC(C2=NOCC(CN3CCCCC3)O2)CN(C)C1 (centres unmarked) [compound 689], which “GBA EC1.5” value is on record?
The value was 50 µM.

And the Emax?
The Emax was 137%.

For Cc1cncc(CC2(C3=NOCC(CN4CCCCC4)O3)CCNCC2)c1 (centres unmarked) [compound 520], which “GBA EC1.5” value is on record?
Its value is 13 µM.

And the Emax?
Its Emax is 136%.

How did the “GBA EC1.5” value turn out when CCCCCO[C@H]1CC[C@H](NC(=O)c2cnn3c(C)cc(C)nc23)CC1 [LTI-291, reference compound] was run?
Its value is 112 µM.

What does the source list for CN1CC2(C)CN(CC3CON=C(C4(C)CCNCC4)O3)CC2(C)C1 (centres unmarked) [compound 628]?
GBA EC1.5: 43 µM; Emax: 136%

How did the “GBA EC1.5” value turn out when NCC(=O)N1CCCC(C2=NOCC(CN3CCCCC3)O2)C1 (racemic) [compound 725, rac-2-amino-1-(3-(5-(piperidin-1-ylmethyl)-5,6-dihydro-1,4,2-dioxazin-3-yl)piperidin-1-yl)ethan-1-one] was run?
The value was 36 µM.

What about the Emax of the same compound?
Its Emax is 168%.

With COCCC1(C2=NOCC(CN3CCCCC3)O2)CCNCC1 (racemic) [compound 726, rac-3-(4-(2-methoxyethyl)piperidin-4-yl)-5-(piperidin-1-ylmethyl)-5,6-dihydro-1,4,2-dioxazine] as the compound, how does the “GBA EC1.5” value read?
The value was 8 µM.

What about the Emax of the same compound?
Its Emax is 269%.

Which “GBA EC1.5” value does the source give for CN(C)CC1CON=C(C2CCN(C)C2)O1 (centres unmarked) [compound 605] here?
Its value is 45 µM.

What about the Emax of the same compound?
The Emax was 148%.
